According to patent publication US10919941B2, “Functional lipid constructs” (KODE BIOTECH LIMITED, priority 2007, dated 2021):
No end group written: not given here.

Assays:
[1] = system: Miltenberger Antibody Positive Panel; experiment: Reactivity of modified RBCs against the Miltenberger Antibody Positive Panel; format: cell-based, human; set-up: key to score vs panel 15 TAP2 / score vs panel 4 T7202 / score vs panel 8 T5896 / score vs panel 2 T217 / score vs panel 3 T165 / score vs panel 14 TAP1 / score vs panel 10 Mia / score vs panel 11 Mur / score vs panel 12 Gam / score vs panel 6 T6025 / score vs panel 7 T8445 / score vs panel 9 MIII / score vs panel 13 BoxH / reactivity with Panel Serum #7 (T8445) / agglutination score, Panel Serum #7 (T8445): 0 or ‘−’ no agglutination; 0 or ‘−’ no agglutination; 1+ or 3=very weak agglutination; 1+ or 3=very weak agglutination; 2+ or 5=weak agglutination; 2+ or 5=weak agglutination; 3+ or 8=moderate strong agglutination; 3+ or 8=moderate strong agglutination; 4+ or 10/12=strong agglutination; 4+ or 10/12=strong agglutination; 4+ or 10/12=strong agglutination; details: for agglutination score, Panel Serum #7 (T8445): cells modified at 50 μg/ml, 2 hour 37° C., BioVue AHG cards; for reactivity with Panel Serum #7 (T8445): construct 50 μg/ml (2 hours, 37° C.)
Protocol: Red blood cells are modified by mixing 1 part by volume of washed packed red blood cells with 1 part by volume of peptide-lipid construct dispersed at a concentration of 10 to 1000 pg/ml in cell media (Celpresol™).
The suspensions are either: • 1. incubated for 2 hours at 37° C. before being washed and suspended in a cell medium for serological analysis at a concentration of 0.8 to 3% (Method 1); or • 2. incubated for 3 to 4 hours at room temperature (circa 25° C.) followed by 18 hours at 4° C. before being washed and suspended in a cell medium for serological analysis at a concentration of 0.8 to 3% (Method 2).
Serological reactions are graded or scored by either of two established systems (0 or ‘−’ no agglutination, 1+ or 3=very weak agglutination, 2+ or 5=weak agglutination, 3+ or 8=moderate strong agglutination, 4+ or 10/12=strong agglutination)
Serological platforms used are Tube (addition of reagents and reactants into plastic or glass serology tubes and after appropriate incubations, washing and centrifugation observing reactions macroscopically by eye and a 10× magnification eyepiece and scoring) and BioVue™ (addition of reactants into cassettes containing beads (including some reactants) and after appropriate incubations and centrifugation observing the reaction patterns trapped within the Gel matrix). BioVue is the serological column agglutination platform of Ortho-Clinical Diagnostics. Diamed is the serological column agglutination platform of Diamed AG.

antibody negative serums = experiment: False positive reactions of modified RBCs with antibody negative serums/plasma; format: cell-based, human; set-up: key to Reaction score BioVue AHG, PAC samples 1-46, 49, 50, 52, 53 / Reaction score BioVue AHG, PAC sample 47 / Reaction score BioVue AHG, PAC sample 48 / Reaction score BioVue AHG, PAC sample 51 / agglutination score, T series serum 2 / agglutination score, T series serum 42 / agglutination score, T series serum 63 / agglutination score, T series serum 62 / agglutination score, T series serum 7 / agglutination score, T series serum 20 / agglutination score, T series serum 48 / agglutination score, T series serum 22 / agglutination score, T series serum 39 / agglutination score, T series serum 23 / agglutination score, T series serum 30 / agglutination score, T series serum 4 / agglutination score, T series serum 31 / agglutination score, T series serum 44 / agglutination score, T series serum 61 / agglutination score, T series serum 18 / agglutination score, T series serum 21 / agglutination score, T series serum 28 / agglutination score, T series serum 55 / agglutination score, false positive serum T18 / agglutination score, false positive serum T21 / agglutination score, false positive serum T28 / agglutination score, false positive serum T55 / agglutination score, false positive serum T78 / agglutination score, false positive serum T92: 0 or ‘−’ no agglutination; 0 or ‘−’ no agglutination; 1+ or 3=very weak agglutination; 1+ or 3=very weak agglutination; 2+ or 5=weak agglutination; 2+ or 5=weak agglutination; 3+ or 8=moderate strong agglutination; 3+ or 8=moderate strong agglutination; 4+ or 10/12=strong agglutination; 4+ or 10/12=strong agglutination; 4+ or 10/12=strong agglutination; details: BioVue AHG cards
[2] = larger series = 102, cells modified at 50 μg/ml, 2 hour 37° C.
[3] = cells modified at 50 μg/ml, 2 hour 37° C.

Substance	score vs panel 2 T217 ([1]; Table 9, construct 100 μg/ml)	score vs panel 3 T165 ([1]; Table 9, construct 100 μg/ml)	score vs panel 4 T7202 ([1]; Table 9, construct 100 μg/ml)	score vs panel 6 T6025 ([1]; Table 9, construct 100 μg/ml)	score vs panel 7 T8445 ([1]; Table 9, construct 100 μg/ml)	score vs panel 8 T5896 ([1]; Table 9, construct 100 μg/ml)	score vs panel 9 MIII ([1]; Table 9, construct 100 μg/ml)	score vs panel 10 Mia ([1]; Table 9, construct 100 μg/ml)	score vs panel 11 Mur ([1]; Table 9, construct 100 μg/ml)	score vs panel 12 Gam ([1]; Table 9, construct 100 μg/ml)	score vs panel 2 T217 ([1]; Table 9, construct 50 μg/ml)	score vs panel 4 T7202 ([1]; Table 9, construct 50 μg/ml)	score vs panel 7 T8445 ([1]; Table 9, construct 50 μg/ml)	score vs panel 8 T5896 ([1]; Table 9, construct 50 μg/ml)	score vs panel 15 TAP2 ([1]; Table 9, construct 50 μg/ml)	agglutination score, Panel Serum #7 (T8445) [1]	reactivity with Panel Serum #7 (T8445) [1]	other results
M18: DOPE peptide-lipid construct: Mur peptide PAHTANEV, leader c, spacer CMG(2) (PAHTANEVC; also: DOPE peptide-lipid construct via leader Cys, spacer CMG(2))	0	10	0	10	8	0	0	0	0	0								
M14: DOPE peptide-lipid construct: Mur peptide DTYPAHTANEVSE, leader c, spacer CMG(2) (DTYPAHTANEVSEC; also: DOPE peptide-lipid construct via leader Cys, spacer CMG(2))	3	10	5	10	5	0	0	0	0		0	3	8	0				score vs panel 2 T217 ([1]; Table 9, construct 10 μg/ml): 0; score vs panel 3 T165 ([1]; Table 9, construct 10 μg/ml): 10; score vs panel 4 T7202 ([1]; Table 9, construct 10 μg/ml): 0; score vs panel 6 T6025 ([1]; Table 9, construct 10 μg/ml): 8; score vs panel 7 T8445 ([1]; Table 9, construct 10 μg/ml): 5; score vs panel 8 T5896 ([1]; Table 9, construct 10 μg/ml): 0; score vs panel 9 MIII ([1]; Table 9, construct 10 μg/ml): 0; score vs panel 10 Mia ([1]; Table 9, construct 10 μg/ml): 0; score vs panel 11 Mur ([1]; Table 9, construct 10 μg/ml): 0; score vs panel 13 BoxH ([1]; Table 9, construct 10 μg/ml): 0; score vs panel 3 T165 ([1]; Table 9, construct 50 μg/ml): 10; score vs panel 6 T6025 ([1]; Table 9, construct 50 μg/ml): 5; score vs panel 9 MIII ([1]; Table 9, construct 50 μg/ml): 0; score vs panel 10 Mia ([1]; Table 9, construct 50 μg/ml): 0; score vs panel 11 Mur ([1]; Table 9, construct 50 μg/ml): 0; score vs panel 13 BoxH ([1]; Table 9, construct 100 μg/ml): 0
M16: DOPE peptide-lipid construct: Mur peptide TYPAHTANEV, leader c, spacer PEG (TYPAHTANEVC; also: DOPE peptide-lipid construct via leader Cys, spacer PEG)	0	10	5	5	12	0	0	0	0	0								score vs panel 13 BoxH ([1]; Table 9, construct 100 μg/ml): 0
M29: DOPE peptide-lipid construct: Mur peptide PAHTANEVS, leader c, spacer CMG(2) (PAHTANEVSC; also: DOPE peptide-lipid construct via leader Cys, spacer CMG(2))											0	10		0	8	8	8	agglutination score, false positive serum T28 (antibody negative serums; [2]): 5; agglutination score, false positive serum T92 (antibody negative serums; [2]): 8
M19: DOPE peptide-lipid construct: Mur peptide PAHTANEV, leader c, spacer CMG(2) (PAHTANEVC; also: DOPE peptide-lipid construct via leader Cys, spacer CMG(2))	0	10	0	8	10	3	0	0	0	0						8	8	agglutination score, false positive serum T55 (antibody negative serums; [2]): 12
M27: DOPE peptide-lipid construct: Mur peptide TYPAHTAN, leader c, spacer CMG(2) (TYPAHTANC; also: DOPE peptide-lipid construct via leader Cys, spacer CMG(2))											0	10	0	0	0			
M31: DOPE peptide-lipid construct: Mur peptide YPAHTANEVS, leader c, spacer CMG(2) (YPAHTANEVSC; also: DOPE peptide-lipid construct via leader Cys, spacer CMG(2))											0	10	8	0	0	8	8	agglutination score, false positive serum T21 (antibody negative serums; [2]): 10; agglutination score, false positive serum T28 (antibody negative serums; [2]): 12; agglutination score, false positive serum T78 (antibody negative serums; [2]): 8; agglutination score, false positive serum T92 (antibody negative serums; [2]): 12
M30: DOPE peptide-lipid construct: Mur peptide DTYPAHTANE, leader c, spacer CMG(2) (DTYPAHTANEC; also: DOPE peptide-lipid construct via leader Cys, spacer CMG(2))											0	10	8	0	8	8	8	% positive (antibody negative serums; T series reactives (n = 58)): 9%; agglutination score, T series serum 2 (antibody negative serums; [3]): 10; agglutination score, T series serum 4 (antibody negative serums; [3]): 8; agglutination score, T series serum 7 (antibody negative serums; [3]): 0; agglutination score, T series serum 18 (antibody negative serums; [3]): 0; agglutination score, T series serum 20 (antibody negative serums; [3]): 0; agglutination score, T series serum 21 (antibody negative serums; [3]): 0; agglutination score, T series serum 22 (antibody negative serums; [3]): 0; agglutination score, T series serum 23 (antibody negative serums; [3]): 0; agglutination score, T series serum 28 (antibody negative serums; [3]): 0; agglutination score, T series serum 30 (antibody negative serums; [3]): 0; agglutination score, T series serum 31 (antibody negative serums; [3]): 8; agglutination score, T series serum 39 (antibody negative serums; [3]): 0; agglutination score, T series serum 42 (antibody negative serums; [3]): 0; agglutination score, T series serum 44 (antibody negative serums; [3]): 10; agglutination score, T series serum 48 (antibody negative serums; [3]): 0; agglutination score, T series serum 55 (antibody negative serums; [3]): 0; agglutination score, T series serum 61 (antibody negative serums; [3]): 10; agglutination score, T series serum 62 (antibody negative serums; [3]): 0; agglutination score, T series serum 63 (antibody negative serums; [3]): 0
M21: DOPE peptide-lipid construct: MUTK peptide SQTNDKHKRD, leader c, spacer CMG(2) (SQTNDKHKRDC; also: DOPE peptide-lipid construct via leader Cys, spacer CMG(2))																		score vs panel 2 T217 ([1]; Table 8, construct 200 μg/ml): 0; score vs panel 3 T165 ([1]; Table 8, construct 200 μg/ml): 8; score vs panel 4 T7202 ([1]; Table 8, construct 200 μg/ml): 0; score vs panel 6 T6025 ([1]; Table 8, construct 200 μg/ml): 8; score vs panel 7 T8445 ([1]; Table 8, construct 200 μg/ml): 0; score vs panel 8 T5896 ([1]; Table 8, construct 200 μg/ml): 0; score vs panel 9 MIII ([1]; Table 8, construct 200 μg/ml): 0; score vs panel 10 Mia ([1]; Table 8, construct 200 μg/ml): 0; score vs panel 11 Mur ([1]; Table 8, construct 200 μg/ml): 0; score vs panel 12 Gam ([1]; Table 8, construct 200 μg/ml): 3; score vs panel 15 TAP2 ([1]; Table 8, construct 200 μg/ml): 5
M25: DOPE peptide-lipid construct: Mur peptide Tyr Pro Ala His Thr Ala Asn Gln, leader c, spacer CMG(2)											0	0	3	0	8	3	3	agglutination score, false positive serum T78 (antibody negative serums; [2]): 5; score vs panel 3 T165 ([1]; Table 9, construct 50 μg/ml): 3; score vs panel 6 T6025 ([1]; Table 9, construct 50 μg/ml): 0; score vs panel 9 MIII ([1]; Table 9, construct 50 μg/ml): 0; score vs panel 10 Mia ([1]; Table 9, construct 50 μg/ml): 0; score vs panel 11 Mur ([1]; Table 9, construct 50 μg/ml): 0; score vs panel 12 Gam ([1]; Table 9, construct 50 μg/ml): 0
